Test results as given in US9340569B2, “Methods and compositions for inhibiting clostridium difficile spore germination and outgrowth” (priority 2008, dated 2016).
pKi: −log10 of the molar value. Entries after “also recorded” stand apart in the source; their conditions may differ. Structures can show the parent of a compound that is named as a salt. Where two headings read alike, the source gives them in different places.

Key:
[1] = tested on: C. difficile spores; assay: Inhibition of taurocholate-induced C. difficile spore germination, Ki from Lineweaver-Burk plot; type: cell-based, Clostridium difficile; conditions: for Inhibits Germination?: BHIS with 2-50 mM taurocholate plus inhibitor, OD600; for pKi: binding constant of inhibitor for the spore, competition with taurocholate
[2] = tested on: vegetative C. difficile; type: cell-based, Clostridium difficile
[3] = tested on: C. perfringens SM101; type: cell-based, Clostridium perfringens
[4] = tested on: C. difficile spores; type: cell-based, Clostridium difficile
[5] = tested on: C. difficile spores; type: cell-based, Clostridium difficile; remark: listed apart in the source
[6] = rat, in vivo; cited from earlier work
[7] = tested on: C. difficile spores
[8] = in vivo; cited from earlier work

## COC(=O)CC[C@@H](C)[C@H]1CC[C@H]2[C@@H]3[C@H](O)C[C@@H]4C[C@H](OC(C)=O)CC[C@]4(C)[C@H]3CC[C@]12C [5β-cholanic acid-3α,7α-diol 3-acetate methyl ester]
[1]
  Inhibits Germination?: Yes
  pKi: 4.40

## C[C@H](CCC(=O)O)[C@H]1CC[C@H]2[C@@H]3[C@@H](O)C[C@@H]4C[C@H](O)CC[C@]4(C)[C@H]3CC[C@]12C [UA, ursodeoxycholate]
[2]
  inhibition of vegetative growth of C. difficile, general statement: capable of inhibiting the vegetative growth

## C[C@H](CCC(=O)NCCS(=O)(=O)O)[C@H]1CC[C@H]2[C@@H]3[C@H](O)C[C@@H]4C[C@H](O)CC[C@]4(C)[C@H]3CC[C@]12C [Taurochenodeoxycholate, 5β-cholanic acid-3α,7α-diol n-(2-sulphoethyl)-amide sodium salt]
[1]; listed as taurochenodeoxycholate, sodium salt
  Inhibits Germination?: neither 5β-cholanic acid 3α-ol-acetate nor taurochenodeoxycholate was observed to inhibit
[1]; sodium salt
  Inhibits Germination?: No

## C[C@H](CCC(=O)NCC(=O)O)[C@H]1CC[C@H]2[C@@H]3[C@H](O)C[C@@H]4C[C@H](O)CC[C@]4(C)[C@H]3C[C@H](O)[C@]12C [GA, glycocholate]
[2]
  growth of vegetative C. difficile: able to grow
[3]; BHIS containing 0.1% bile salt
  growth of vegetative C. perfringens: able to grow, however, to wild-type levels
[4]
  colony formation by spores, in words: stimulated efficient colony formation
[5]
  germination (decrease in optical density) in BHIS: did not result in any significant decrease in the optical density

## CCN(CCS(=O)(=O)O)C(=O)CC[C@@H](C)[C@H]1CC[C@H]2[C@@H]3[C@@H](O)C[C@@H]4C[C@H](O)CC[C@]4(C)[C@H]3CC[C@]12C [N-ethyl-tauroursodeoxycholate]
[6]
  deconjugation: 3.4+/−2.1%

## COC(=O)CC[C@@H](C)[C@H]1CC[C@H]2[C@@H]3C[C@@H](O)[C@@H]4C[C@H](O)CC[C@]4(C)[C@H]3CC[C@]12C [5β-cholanic acid 3α,6β diol methyl ester]
[1]
  Inhibits Germination?: Yes
  pKi: 4.32

## COC(=O)CC[C@@H](C)[C@H]1CC[C@H]2[C@@H]3[C@H](O)C[C@@H]4C[C@H](O)CC[C@]4(C)[C@H]3CC[C@]12C [5β-cholanic acid 3α,7α diol methyl ester, 5β-cholanic acid-3α,7α-diol methyl ester]
[1]
  Inhibits Germination?: Yes
  pKi: 4.66

## C[C@H](CCC(=O)O)[C@H]1CC[C@H]2[C@@H]3[C@H](O)C[C@@H]4C[C@H](O)CC[C@]4(C)[C@H]3CC[C@]12C [CDCA, chenodeoxycholate]
[7]
  colony formation after transient exposure, in words: did not induce colony formation
  inhibition of colony formation in response to cholate: inhibited colony formation
  inhibition of colony formation in response to taurocholate: inhibited colony formation
[2]
  growth of vegetative C. difficile: unable to grow; also recorded: inhibited the growth
  inhibition of vegetative growth of C. difficile, general statement: capable of inhibiting the vegetative growth
[3]
  growth of vegetative C. perfringens: unable to grow; also recorded: inhibited the growth

## C[C@H](CCC(=O)O)[C@H]1CC[C@H]2[C@@H]3[C@H](O)C[C@@H]4C[C@H](O)CC[C@]4(C)[C@H]3C[C@H](O)[C@]12C [CA, cholate]
[2]
  growth of vegetative C. difficile: able to grow
[3]
  growth of vegetative C. perfringens: able to grow, however, to wild-type levels
[4]
  colony formation by spores, in words: stimulated efficient colony formation
[5]
  germination (decrease in optical density) in BHIS: did not result in any significant decrease in the optical density

## CC(=O)O[C@@H]1CC[C@@]2(C)[C@H](CC[C@@H]3[C@@H]2CC[C@]2(C)[C@@H]([C@H](C)CCC(=O)O)CC[C@@H]32)C1 [5β-cholanic acid 3α-ol-acetate]
[1]
  Inhibits Germination?: No

## COC(=O)CC[C@@H](C)[C@H]1CC[C@H]2[C@@H]3[C@H](OC(C)=O)C[C@@H]4C[C@H](OC(C)=O)CC[C@]4(C)[C@H]3CC[C@]12C [5β-cholanic acid-3α,7α-diol diacetate methyl ester]
[1]
  affinity for C. difficile spores relative to chenodeoxycholate: 7-8 times
  potency as inhibitor of spore germination relative to chenodeoxycholate: approximately ten times more potent
  Inhibits Germination?: Yes
  pKi: 4.40

## CC(CCC(=O)O)C1CCC2C3CC(=O)C4CC(O)CCC4(C)C3CCC12C (stereo not shown) [6-ketolithocholate]
[1]
  Inhibits Germination?: Yes
  pKi: 3.70

## C[C@H](CCC(=O)N(C)CC(=O)O)[C@H]1CC[C@H]2[C@@H]3[C@H](O)C[C@@H]4C[C@H](O)CC[C@]4(C)[C@H]3C[C@H](O)[C@]12C [cholylsarcosine]
[8]
  resistance to deconjugation: resistant to deconjugation

## C[C@H](CCC(=O)O)[C@H]1CC[C@H]2[C@@H]3CC[C@@H]4C[C@H](O)CC[C@]4(C)[C@H]3C[C@H](O)[C@]12C [DCA, deoxycholate]
[7]
  colony formation after transient exposure, in words: indistinguishable from that of spores incubated with taurocholate
[2]
  growth of vegetative C. difficile: neither C. difficile nor C. perfringens grew
[3]
  growth of vegetative C. perfringens: neither C. difficile nor C. perfringens grew
[5]
  germination (decrease in optical density) in BHIS: small drop in OD600 that after 60 min was not significantly more than the change in OD of spores in BHIS alone

## C[C@H](CCC(=O)NCCS(=O)(=O)O)[C@H]1CC[C@H]2[C@@H]3[C@@H](O)C[C@@H]4C[C@H](O)CC[C@]4(C)[C@H]3CC[C@]12C [tauroursodeoxycholate]
[6]
  deconjugation: 100%

## NCC(=O)O [glycine]
[5]
  cogermination in buffer (OD600): germinated in the presence of taurocholate but not in its absence
  germination (optical density), glycine plus taurocholate: the efficiency of germination was enhanced
  germination (optical density), single agent: a small decrease in the optical density
